“And” between values parts separate entries of the source, which are not always exact repeats. Equal values may be shown once. Inconclusive results and toxic doses are left out.
Test system: L1210 leukemia ip in BDF1 mice, survival T/C
Test: NCI In Vivo Anticancer Drug Screen. Data for tumor model L1210 Leukemia (intraperitoneal) in B6D2F1 (BDF1) mice
Settings: endpoint: mean survival time, higher = longer survival
Summary of the method: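 Transplantable tumor model; survival measured in treated vs vehicle control mice. Value = treated/control.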

[1] = dose: 100.0 mg/kg/injection, schedule: Q04DX003 (ip), vehicle: saline
[2] = dose: 200.0 mg/kg/injection, schedule: Q04DX003 (ip), vehicle: saline
[3] = dose: 400.0 mg/kg/injection, schedule: Q04DX003 (ip), vehicle: saline
[4] = dose: 100.0 mg/kg/injection, schedule: Q01DX009 (ip), vehicle: Klucel (hydroxypropylcellulose) (HPC)
[5] = dose: 100.0 mg/kg/injection, schedule: Q04DX002 (ip), vehicle: Klucel (hydroxypropylcellulose) (HPC)
[6] = dose: 100.0 mg/kg/injection, schedule: Q01DX009 (ip), vehicle: saline
[7] = dose: 200.0 mg/kg/injection, schedule: Q01DX009 (ip), vehicle: saline
[8] = dose: 400.0 mg/kg/injection, schedule: Q01DX009 (ip), vehicle: saline
[9] = dose: 100.0 mg/kg/injection, schedule: Q01DX001 (ip), vehicle: carboxymethylcellulose (CMC)
[10] = dose: 200.0 mg/kg/injection, schedule: Q01DX001 (ip), vehicle: carboxymethylcellulose (CMC)
[11] = dose: 400.0 mg/kg/injection, schedule: Q01DX001 (ip), vehicle: carboxymethylcellulose (CMC)
[12] = dose: 50.0 mg/kg/injection, schedule: Q01DX009 (ip), vehicle: Klucel (hydroxypropylcellulose) (HPC)
[13] = dose: 100.0 mg/kg/injection, schedule: Q04DX003 (ip), vehicle: saline with Tween-80
[14] = dose: 100.0 mg/kg/injection, schedule: Q01DX009 (ip), vehicle: saline with Tween-80
[15] = dose: 200.0 mg/kg/injection, schedule: Q01DX009 (ip), vehicle: saline with Tween-80
[16] = dose: 400.0 mg/kg/injection, schedule: Q01DX009 (ip), vehicle: saline with Tween-80

In the case of `COc1cccc(C=Nc2ccc(Br)cc2)c1O.COc1cccc(C=Nc2ccc(Br)cc2)c1O.[Co]`, the T/C [1] is reported as 98 % of control, the T/C [2] is reported as 98 % of control and the T/C [3] is reported as 98 % of control.
In the case of `CC1C(=O)CC(c2ccccc2)N(C)C1c1ccccc1` (stereo unspecified), the T/C (dose: 75.0 mg/kg/injection, schedule: Q01DX001 (ip), vehicle: saline) is reported as 96 % of control, the T/C (dose: 75.0 mg/kg/injection, schedule: Q04DX003 (ip), vehicle: acetone) is reported as 93 % of control and the T/C (dose: 150.0 mg/kg/injection, schedule: Q01DX001 (ip), vehicle: saline) is reported as 91 % of control. The T/C (dose: 150.0 mg/kg/injection, schedule: Q04DX003 (ip), vehicle: acetone) was 98 % of control, the T/C (dose: 300.0 mg/kg/injection, schedule: Q01DX001 (ip), vehicle: saline) was 100 % of control and the T/C (dose: 300.0 mg/kg/injection, schedule: Q04DX003 (ip), vehicle: acetone) was 96 % of control.
With `CCN(CC)CC(=O)NCC(CC)(CCN1CCOCC1)c1cccc2ccccc12` (stereo unspecified) the T/C [1] was 97 % of control and the T/C [2] was 95 % of control.
With `Cc1ccc2c(c1[N+](=O)[O-])C(=O)c1ccccc1C2=O` the T/C (dose: 50.0 mg/kg/injection, schedule: Q01DX001 (ip), vehicle: saline) was 96 % of control, the T/C (dose: 100.0 mg/kg/injection, schedule: Q01DX001 (ip), vehicle: saline) was 90 % of control and the T/C [4] was 100 % of control. The T/C [5] was 104 % of control, the T/C (dose: 200.0 mg/kg/injection, schedule: Q01DX001 (ip), vehicle: saline) was 90 % of control and the T/C (dose: 200.0 mg/kg/injection, schedule: Q04DX002 (ip), vehicle: Klucel (hydroxypropylcellulose) (HPC)) was 110 % of control. The T/C (dose: 400.0 mg/kg/injection, schedule: Q01DX001 (ip), vehicle: saline) was 90 % of control, the T/C (dose: 400.0 mg/kg/injection, schedule: Q01DX009 (ip), vehicle: Klucel (hydroxypropylcellulose) (HPC)) was 111 % of control and the T/C (dose: 400.0 mg/kg/injection, schedule: Q04DX002 (ip), vehicle: Klucel (hydroxypropylcellulose) (HPC)) was 96 % of control.
In the case of `CC(=O)CC(O)(C(F)(F)F)C(F)(F)F`, the T/C [6] is reported as 105 % of control, the T/C [7] is reported as 101 % of control and the T/C [8] is reported as 93 % of control.
With `CC(CCOCC1CO1)OCC1CO1` (stereo unspecified) the T/C [6] was 101 % of control, the T/C [1] was 106 % of control and the T/C [7] was 113 % of control. The T/C [2] was 105 % of control, the T/C [8] was 120 % of control and the T/C [3] was 120 % of control.
With `COc1ccc(OC)c(COC(=O)c2ccccc2)c1COC(=O)c1ccccc1` the T/C [9] was 95 % of control, the T/C [10] was 101 % of control and the T/C [11] was 95 % of control.
For `CCO/C=N/c1onc(C)c1C#N`, the T/C (dose: 100.0 mg/kg/injection, schedule: Q04DX003 (ip), vehicle: carboxymethylcellulose (CMC)) was 102 % of control, the T/C (dose: 200.0 mg/kg/injection, schedule: Q04DX003 (ip), vehicle: carboxymethylcellulose (CMC)) was 100 % of control and the T/C (dose: 400.0 mg/kg/injection, schedule: Q04DX003 (ip), vehicle: carboxymethylcellulose (CMC)) was 90 % of control.
In the case of `Cc1cc([N+](=O)[O-])c(Cl)c([N+](=O)[O-])c1`, the T/C [9] is reported as 91 % of control, the T/C [10] is reported as 89 % of control and the T/C [11] is reported as 100 % of control.
For `Cc1ccc(NC(=O)C(F)(F)F)cc1F`, the T/C [12] was 93 % of control, the T/C [4] was 104 % of control and the T/C (dose: 200.0 mg/kg/injection, schedule: Q01DX009 (ip), vehicle: Klucel (hydroxypropylcellulose) (HPC)) was 97 % of control.
With `O=S1(=O)c2ccccc2NC(c2ccc(Cl)cc2)C1c1ccccc1` (stereo unspecified) the T/C [1] was 95 % of control, the T/C [2] was 89 % of control and the T/C [3] was 97 % of control.
`Oc1ccc(Cl)cc1Sc1cc(Cl)ccc1O` was tested, and the T/C (dose: 25.0 mg/kg/injection, schedule: Q04DX003 (ip), vehicle: other) was 103 % of control, the T/C (dose: 50.0 mg/kg/injection, schedule: Q01DX009 (ip), vehicle: other) was 95 % of control and the T/C (dose: 50.0 mg/kg/injection, schedule: Q04DX003 (ip), vehicle: other) was 97 % of control. The T/C (dose: 100.0 mg/kg/injection, schedule: Q01DX009 (ip), vehicle: other) was 111 % of control, the T/C (dose: 100.0 mg/kg/injection, schedule: Q04DX003 (ip), vehicle: other) was 92 % of control and the T/C [1] was 86 % of control. The T/C (dose: 200.0 mg/kg/injection, schedule: Q01DX009 (ip), vehicle: other) was 95 % of control.
With `Cc1ccc(C2=C(c3ccc(C)cc3)CS(=O)(=O)C2)cc1` the T/C (dose: 100.0 mg/kg/injection, schedule: Q01DX001 (ip), vehicle: saline with Tween-80) was 95 % of control, the T/C (dose: 200.0 mg/kg/injection, schedule: Q01DX001 (ip), vehicle: saline with Tween-80) was 168 % of control and the T/C (dose: 400.0 mg/kg/injection, schedule: Q01DX001 (ip), vehicle: saline with Tween-80) was 244 % of control.
`CCCC(Br)C(=O)OCC` (stereo unspecified) was tested, and the T/C [13] was 101 % of control and the T/C (dose: 200.0 mg/kg/injection, schedule: Q04DX003 (ip), vehicle: saline with Tween-80) was 96 % of control.
With `O=C(Nc1ccc(CCO)cc1)c1ccc(F)cc1` the T/C [14] was 102 % of control, the T/C [15] was 93 % of control and the T/C [16] was 93 % of control.
`CC(=O)N(C)C` was tested, and the T/C (dose: 62.5 mg/kg/injection, schedule: Q01DX010 (ip), vehicle: saline) was 94 % of control and 97 % of control, the T/C (dose: 125.0 mg/kg/injection, schedule: Q01DX010 (ip), vehicle: saline) was 105 % of control and 91 % of control and the T/C (dose: 250.0 mg/kg/injection, schedule: Q01DX010 (ip), vehicle: saline) was 103 % of control and 91 % of control. For the same compound, the T/C (dose: 500.0 mg/kg/injection, schedule: Q01DX001 (ip), vehicle: saline) was 101 % of control, the T/C (dose: 500.0 mg/kg/injection, schedule: Q01DX010 (ip), vehicle: saline) was 100 % of control and 89 % of control and the T/C (dose: 900.0 mg/kg/injection, schedule: Q01DX Z (ip), vehicle: other) was 106 % of control. For the same compound, the T/C (dose: 1000.0 mg/kg/injection, schedule: Q01DX001 (ip), vehicle: saline) was 100 % of control, the T/C (dose: 2000.0 mg/kg/injection, schedule: Q01DX001 (ip), vehicle: saline) was 97 % of control and the T/C (dose: 3000.0 mg/kg/injection, schedule: Q01DX Z (ip), vehicle: other) was 87 % of control.
For `COc1cc([N+](=O)[O-])c(Cl)cc1NS(=O)(=O)c1ccccc1`, the T/C [14] was 100 % of control, the T/C [13] was 97 % of control and the T/C (dose: 133.0 mg/kg/injection, schedule: Q04DX003 (ip), vehicle: saline with Tween-80) was 95 % of control and 89 % of control. For the same compound, the T/C [15] was 103 % of control, the T/C (dose: 300.0 mg/kg/injection, schedule: Q04DX003 (ip), vehicle: saline with Tween-80) was 95 % of control and 92 % of control and the T/C [16] was 89 % of control. The T/C (dose: 400.0 mg/kg/injection, schedule: Q04DX003 (ip), vehicle: saline with Tween-80) was 95 % of control.
For `C=CCNC(=S)NCc1ccc(Cl)cc1`, the T/C (dose: 25.0 mg/kg/injection, schedule: Q01DX009 (ip), vehicle: Klucel (hydroxypropylcellulose) (HPC)) was 100 % of control, the T/C [12] was 102 % of control and the T/C [4] was 94 % of control. For the same compound, the T/C [5] was 111 % of control.
`CCOC(=O)c1c[nH]c2c(Cl)cc(Cl)cc2c1=O` was tested, and the T/C (dose: 100.0 mg/kg/injection, schedule: Q01DX001 (ip), vehicle: other) was 104 % of control, the T/C (dose: 200.0 mg/kg/injection, schedule: Q01DX001 (ip), vehicle: other) was 95 % of control and the T/C (dose: 400.0 mg/kg/injection, schedule: Q01DX001 (ip), vehicle: other) was 101 % of control.
`CC1=CC23C(COC(=O)C24CO4)C(C(=O)O)=CC3C1C` (stereo unspecified) was tested, and the T/C (dose: 10.0 mg/kg/injection, schedule: Q01DX001 (ip), vehicle: saline) was 96 % of control.
In the case of `O=C(CCN1CCCCC1)C(O)(c1ccccc1)c1ccccc1`, the T/C (dose: 75.0 mg/kg/injection, schedule: Q01DX001 (ip), vehicle: other) is reported as 103 % of control, the T/C (dose: 150.0 mg/kg/injection, schedule: Q01DX001 (ip), vehicle: other) is reported as 97 % of control and the T/C (dose: 300.0 mg/kg/injection, schedule: Q01DX001 (ip), vehicle: other) is reported as 104 % of control.
